Molecules are shown by their SMILES. Positions count from the first letter of the chain named.

As a reminder, the IC50 is the concentration needed to halve the response being measured. Read a low IC50 as higher potency.

For test [1], the target named is Angiotensin II receptor (Rattus norvegicus) (UniProt P29089+P25095+P35351). Nature of the test: Ratio of inhibitory concentration against AT2 receptor and AT1 receptor of rat adrenal membrane.
Test [2] deals with T1, Type-1 angiotensin II receptor (Oryctolagus cuniculus, UniProt P34976).
T1 sequence (P34976 whole entry): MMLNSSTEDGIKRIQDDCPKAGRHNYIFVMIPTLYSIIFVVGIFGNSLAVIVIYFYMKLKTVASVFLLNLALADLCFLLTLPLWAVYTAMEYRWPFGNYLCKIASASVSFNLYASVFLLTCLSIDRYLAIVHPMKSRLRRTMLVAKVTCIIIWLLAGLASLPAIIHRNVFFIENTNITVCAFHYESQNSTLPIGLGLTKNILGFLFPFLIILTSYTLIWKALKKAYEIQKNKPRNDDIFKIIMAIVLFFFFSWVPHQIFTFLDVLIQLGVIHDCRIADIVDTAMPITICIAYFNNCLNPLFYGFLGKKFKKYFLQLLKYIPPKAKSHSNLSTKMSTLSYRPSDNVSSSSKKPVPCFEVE
The test is described as follows: […] inhibitory concentration against Angiotensin II receptor, type 1 of rabbit aorta membrane.

The target of test [3] is T2, Type-2 angiotensin II receptor (Homo sapiens, UniProt P50052).
T2 sequence (P50052 whole entry): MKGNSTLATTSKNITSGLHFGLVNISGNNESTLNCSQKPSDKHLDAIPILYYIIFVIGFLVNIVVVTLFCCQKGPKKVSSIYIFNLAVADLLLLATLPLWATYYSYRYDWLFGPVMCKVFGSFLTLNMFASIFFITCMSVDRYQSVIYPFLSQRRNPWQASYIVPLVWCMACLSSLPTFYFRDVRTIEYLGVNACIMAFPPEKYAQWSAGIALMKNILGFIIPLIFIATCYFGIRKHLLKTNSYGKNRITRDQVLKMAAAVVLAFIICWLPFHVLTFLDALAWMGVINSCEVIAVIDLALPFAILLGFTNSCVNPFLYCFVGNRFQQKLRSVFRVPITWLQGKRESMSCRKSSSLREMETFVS
Nature of the test: […] inhibitory concentration against AT2 receptor of human adrenal membrane.

The species named for the next test is Oryctolagus cuniculus. The test is described as follows: Ratio of inhibitory concentration against AT2 receptor of rat midbrain to AT1 receptor of rabbit aorta.
For test [4], the target named is T3, Type-2 angiotensin II receptor (Rattus norvegicus, UniProt P35351).
T3 sequence (P35351 whole entry): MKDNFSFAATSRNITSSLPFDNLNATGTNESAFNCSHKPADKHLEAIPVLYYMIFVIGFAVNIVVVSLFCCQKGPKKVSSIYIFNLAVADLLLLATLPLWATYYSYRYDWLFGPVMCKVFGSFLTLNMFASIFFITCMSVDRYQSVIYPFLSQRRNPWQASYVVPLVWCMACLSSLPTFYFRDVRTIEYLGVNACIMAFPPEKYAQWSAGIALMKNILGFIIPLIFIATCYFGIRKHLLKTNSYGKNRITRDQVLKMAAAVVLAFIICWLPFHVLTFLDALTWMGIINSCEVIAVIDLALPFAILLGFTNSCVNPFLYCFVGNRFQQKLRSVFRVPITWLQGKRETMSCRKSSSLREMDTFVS
The test is described as follows: […] inhibitory concentration against Angiotensin II, type 2 of rat midbrain membrane.

The target in test [5] is Angiotensin II receptor (Homo sapiens) (UniProt P30556+P50052). The test is described as follows: Ratio of inhibitory concentration against AT2 receptor and AT1 receptor of human adrenal membrane.
The target in test [6] is T4, Angiotensin II receptor (AT-1) type-1 (Rattus norvegicus, UniProt P29089+P25095).
T4 sequence (P29089 whole entry): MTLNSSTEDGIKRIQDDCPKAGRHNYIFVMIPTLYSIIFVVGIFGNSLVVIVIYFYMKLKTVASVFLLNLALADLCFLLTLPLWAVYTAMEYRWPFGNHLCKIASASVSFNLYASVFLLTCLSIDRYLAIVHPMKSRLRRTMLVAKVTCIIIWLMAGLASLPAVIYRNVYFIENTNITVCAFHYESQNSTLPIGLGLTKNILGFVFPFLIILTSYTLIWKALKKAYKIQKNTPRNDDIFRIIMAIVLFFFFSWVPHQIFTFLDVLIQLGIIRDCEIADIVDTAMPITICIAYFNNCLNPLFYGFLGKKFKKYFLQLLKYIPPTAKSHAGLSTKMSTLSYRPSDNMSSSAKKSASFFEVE
T4 sequence (P25095 whole entry): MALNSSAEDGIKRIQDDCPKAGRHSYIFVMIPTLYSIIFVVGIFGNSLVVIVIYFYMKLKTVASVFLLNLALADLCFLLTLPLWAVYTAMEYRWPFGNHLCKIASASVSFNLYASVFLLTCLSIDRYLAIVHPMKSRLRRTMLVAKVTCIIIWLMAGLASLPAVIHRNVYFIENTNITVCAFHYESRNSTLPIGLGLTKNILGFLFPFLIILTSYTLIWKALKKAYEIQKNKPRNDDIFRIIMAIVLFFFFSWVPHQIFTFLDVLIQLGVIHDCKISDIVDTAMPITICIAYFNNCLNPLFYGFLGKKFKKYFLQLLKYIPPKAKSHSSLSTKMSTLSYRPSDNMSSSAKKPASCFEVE
Nature of the test: […] inhibitory concentration against Angiotensin II receptor, type 1 of rat adrenal membrane.

Test [7] has as its target T3, Type-2 angiotensin II receptor. Nature of the test: […] inhibitory concentration against AT2 receptor of rat adrenal membrane.
For test [8], the target named is T5, Type-1 angiotensin II receptor (Homo sapiens, UniProt P30556).
T5 sequence (P30556 whole entry): T1 sequence (P34976 whole entry) with M2I, A49V, V254I, V270I, H272R, K311R, S349T, V353A
Nature of the test: […] inhibitory concentration against Angiotensin II receptor, type 1 of human adrenal membrane.

Sequence of Angiotensin II receptor (Homo sapiens) (P30556 whole entry, looked up, one chain of several): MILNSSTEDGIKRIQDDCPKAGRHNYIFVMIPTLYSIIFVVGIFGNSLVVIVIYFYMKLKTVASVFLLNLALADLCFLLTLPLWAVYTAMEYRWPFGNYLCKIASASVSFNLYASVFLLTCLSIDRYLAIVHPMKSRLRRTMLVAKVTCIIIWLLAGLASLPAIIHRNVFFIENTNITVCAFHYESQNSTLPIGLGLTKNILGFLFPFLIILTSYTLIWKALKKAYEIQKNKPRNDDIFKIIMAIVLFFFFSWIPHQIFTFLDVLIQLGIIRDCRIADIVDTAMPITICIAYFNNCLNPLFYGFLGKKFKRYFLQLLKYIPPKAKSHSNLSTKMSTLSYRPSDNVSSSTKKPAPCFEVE

Take `CCNC(=O)Nc1ccc2nc(CC)n(Cc3ccc(-c4ccccc4S(=O)(=O)NC(=O)OCCC4CC4)cc3F)c(=O)c2c1`: the Ratio in test [1] amounted to 0.92; in the test listed under Oryctolagus cuniculus, 0.97; in test [5] it was 0.77. Further, the IC50 in test [2] is 0.73 nM; in test [3], 9.8 nM; in test [4], 0.56 nM; in test [6] it was 0.64 nM; in [7], 0.8 nM; in test [8], 12 nM.
For the molecule `Cc1nc2ccc(NC(=O)NC(C)C)cc2c(=O)n1Cc1ccc(-c2ccccc2S(=O)(=O)NC(=O)OCCC(C)C)cc1F`, the Ratio in test [1] stood at 1.2; in the test listed under Oryctolagus cuniculus it was 0.59; in [5] it was 0.93. Moreover, the IC50 in test [2] is 1.2 nM; in [3], 11 nM; in test [4] it was 0.7 nM; in test [6] it was 0.5 nM; in test [7], 0.63 nM; in [8] it was 15 nM.
On to `Cc1nc2ccc(NC(=O)N(C)C)cc2c(=O)n1Cc1ccc(-c2ccccc2S(=O)(=O)NC(=O)OCCC2CC2)cc1F`, for which the Ratio came to 1.2 in test [1], 3.3 in the test listed under Oryctolagus cuniculus and 0.96 in test [5]. The IC50 was determined as 2.3 nM in [2]; 12 nM in [3]; 6.6 nM in [4]; 2.3 nM in test [6]; 2.4 nM in test [7]; 12 nM in test [8].
On to `CCc1nc2ccc(NC(=O)N3CCOCC3)cc2c(=O)n1Cc1ccc(-c2ccccc2S(=O)(=O)NC(=O)OCCC(C)C)cc1F`, for which the Ratio in test [1] came to 1.5; in the test filed under Oryctolagus cuniculus, 0.16. In addition, the IC50 was determined as 2 nM in test [2]; 65 nM in [3]; 0.31 nM in test [4]; 0.66 nM in [6]; 0.95 nM in test [7]; 18 nM in test [8].
For the molecule `CCCc1nc2ccc(NC(=O)NC(C)C)cc2c(=O)n1Cc1ccc(-c2ccccc2S(=O)(=O)NC(=O)c2ccc(CC)cc2F)cc1F`, the Ratio in test [1] is 2.3; in the test listed under Oryctolagus cuniculus, 1.4; in [5], 5.3. For the same molecule, the IC50 in [2] is 0.2 nM; in [3], 4.4 nM; in test [4], 0.28 nM; in test [6], 0.11 nM; in test [7] it was 0.21 nM; in [8], 0.84 nM.
Regarding `CCCCc1nc2ccc(NC(=O)N(C)C(C)C)cc2c(=O)n1Cc1ccc(-c2ccccc2S(=O)(=O)NC(=O)OCCC(C)C)cc1F`, the Ratio in [1] was 1.5; in the test listed under Oryctolagus cuniculus it was 1.3; in test [5] it was 4.4. In addition, the IC50 in test [2] is 0.23 nM; in test [3], 8 nM; in [4], 0.21 nM; in test [6], 0.14 nM; in [7], 0.22 nM; in [8], 1.9 nM.
Consider `CCc1nc2ccc(NC(=O)N(C)C(C)C)cc2c(=O)n1Cc1ccc(-c2ccccc2S(=O)(=O)NC(=O)COCC(C)C)cc1F`, for which the values for the Ratio (in [1]; in the test filed under Oryctolagus cuniculus; in test [5]) were 0.3, 0.1 and 0.18, respectively. The IC50 in test [2] came out at 2.2 nM; in test [3] it was 11 nM; in test [4], 0.21 nM; in test [6], 2 nM; in [7], 0.61 nM; in test [8], 65 nM.
In the case of `CCc1ccc(C(=O)NS(=O)(=O)c2ccccc2-c2ccc(Cn3c(CC)nc4ccc(NC(=O)NC(C)C)cc4c3=O)c(F)c2)c(F)c1`, the results for the Ratio (in test [1]; in the test filed under Oryctolagus cuniculus; in test [5]) were 2.5, 1.3 and 2, respectively. The IC50 in [2] was 0.19 nM; in test [3] it was 3.1 nM; in test [4], 0.25 nM; in test [6], 0.14 nM; in test [7] it was 0.34 nM; in test [8], 1.6 nM.
Turning to `CCCCOC(=O)NS(=O)(=O)c1ccccc1-c1ccc(Cn2c(CCCC)nc3ccc(NC(=O)N(C)C(C)C)cc3c2=O)cc1`, the figures for the IC50 in test [2], in test [3] and in test [4] were 0.24 nM, 60 nM and 2.4 nM, respectively.
With `Cc1nc2ccc(NC(=O)N(C)C(C)C)cc2c(=O)n1Cc1ccc(-c2ccccc2S(=O)(=O)NC(=O)OCCC(C)C)cc1F`, the values for the Ratio (in [1]; in the test listed under Oryctolagus cuniculus; in test [5]) were 1.24, 0.45 and 0.47, respectively. Besides, the IC50 was 2.3 nM in test [2]; 12.5 nM in test [3]; 1.05 nM in test [4]; 0.58 nM in [6]; 0.72 nM in test [7]; 26.5 nM in test [8].
Regarding `CCc1nc2ccc(NC(=O)N(C)C(C)C)cc2c(=O)n1Cc1ccc(-c2ccccc2S(=O)(=O)NC(=O)OCC=C(C)C)cc1F`, the results for the Ratio (in test [1]; in the test filed under Oryctolagus cuniculus; in [5]) were 2.7, 0.97 and 0.62, respectively. The IC50 stood at 0.77 nM in [2]; 9.3 nM in test [3]; 0.75 nM in test [4]; 0.39 nM in [6]; 1.04 nM in test [7]; 14.7 nM in test [8].
On to `CCCCCN(C(=O)c1ccccc1)c1ccc2nc(CCC)n(Cc3ccc(-c4ccccc4-c4nn[nH]n4)cc3)c(=O)c2c1`, for which the IC50 is 1.5 nM in test [2] and 7 nM in [3].
In the case of `CCc1nc2ccc(NC(=O)N(C)C(C)C)cc2c(=O)n1Cc1ccc(-c2ccccc2S(=O)(=O)NC(=O)OCCC(C)C)cc1F`, the Ratio in [1] is 1.1; in the test listed under Oryctolagus cuniculus it was 0.33; in [5], 0.9. The IC50 in [2] turned out to be 0.62 nM; in [3] it was 9.2 nM; in [4], 0.2 nM; in test [6], 0.3 nM; in test [7], 0.3 nM; in test [8], 10 nM.
Turning to `CCc1ccc(C(=O)NS(=O)(=O)c2ccccc2-c2ccc(Cn3c(CC)nc4ccc(NC(=O)N(C)C(C)C)cc4c3=O)c(F)c2)cc1`, the Ratio in [1] is 2.5; in the test listed under Oryctolagus cuniculus, 1.6; in test [5], 1.6. In addition, the IC50 in [2] stood at 0.54 nM; in [3], 8.9 nM; in test [4], 0.25 nM; in test [6], 0.14 nM; in test [7], 0.93 nM; in test [8], 5.8 nM.

The values are drawn from ChEMBL document CHEMBL1150477, “Development of angiotensin II antagonists with equipotent affinity for human AT1 and AT2 receptor subtypes” (Bioorg Med Chem Lett, 1994).
